According to ChEMBL document CHEMBL3792297, “Studies on phenothiazines: New microtubule-interacting compounds with phenothiazine A-ring as potent antineoplastic agents” (Bioorg Med Chem, 2016):

Columns and labels:
Type in all cases: functional
[1] = Growth inhibition of human PC3 cells at 10 uM after 48 hrs by SRB assay relative to control; settings: PC-3, 48 h, read-out: GI
A498 = assay: Growth inhibition of human A498 cells at 10 uM after 48 hrs by SRB assay relative to control; settings: A498, 48 h, read-out: GI
[2] = Growth inhibition of human SW620 cells at 10 uM after 48 hrs by SRB assay relative to control; settings: SW-620, 48 h, read-out: GI
HT-29 = assay: Growth inhibition of human HT-29 cells at 10 uM after 48 hrs by SRB assay relative to control; settings: HT-29, 48 h, read-out: GI
[3] = Growth inhibition of human BT549 cells at 10 uM after 48 hrs by SRB assay relative to control; settings: BT-549, 48 h, read-out: GI
KM12 = assay: Growth inhibition of human KM12 cells at 10 uM after 48 hrs by SRB assay relative to control; settings: KM12, 48 h, read-out: GI
NCI-H23 = assay: Growth inhibition of human NCI-H23 cells at 10 uM after 48 hrs by SRB assay relative to control; settings: NCI-H23, 48 h, read-out: GI
CCRF-CEM = assay: Growth inhibition of human CCRF-CEM cells at 10 uM after 48 hrs by SRB assay relative to control; settings: read-out: GI
K562 = assay: Growth inhibition of human K562 cells at 10 uM after 48 hrs by SRB assay relative to control; settings: K562, 48 h, read-out: GI
[4] = Growth inhibition of human SF539 cells at 10 uM after 48 hrs by SRB assay relative to control; settings: SF-539, 48 h, read-out: GI
[5] = Growth inhibition of human OVCAR5 cells at 10 uM after 48 hrs by SRB assay relative to control; settings: OVCAR-5, 48 h, read-out: GI
[6] = Growth inhibition of human IGROV1 cells at 10 uM after 48 hrs by SRB assay relative to control; settings: IGROV-1, 48 h, read-out: GI
SR = assay: Growth inhibition of human SR cells at 10 uM after 48 hrs by SRB assay relative to control; settings: read-out: GI
A549 = assay: Growth inhibition of human A549 cells at 10 uM after 48 hrs by SRB assay relative to control; settings: A549, 48 h, read-out: GI
[7] = Growth inhibition of human UACC257 cells at 10 uM after 48 hrs by SRB assay relative to control; settings: UACC-257, 48 h, read-out: GI
[8] = Growth inhibition of human UACC62 cells at 10 uM after 48 hrs by SRB assay relative to control; settings: UACC-62, 48 h, read-out: GI
SK-MEL-5 = assay: Growth inhibition of human SK-MEL-5 cells at 10 uM after 48 hrs by SRB assay relative to control; settings: SK-MEL-5, 48 h, read-out: GI
[9] = Growth inhibition of human SNB19 cells at 10 uM after 48 hrs by SRB assay relative to control; settings: SNB-19, 48 h, read-out: GI
[10] = Growth inhibition of human HCT15 cells at 10 uM after 48 hrs by SRB assay relative to control; settings: HCT-15, 48 h, read-out: GI
786-0 = assay: Growth inhibition of human 786-0 cells at 10 uM after 48 hrs by SRB assay relative to control; settings: 786-0, 48 h, read-out: GI
[11] = Growth inhibition of human COLO205 cells at 10 uM after 48 hrs by SRB assay relative to control; settings: COLO 205, 48 h, read-out: GI
NCI-H322M = assay: Growth inhibition of human NCI-H322M cells at 10 uM after 48 hrs by SRB assay relative to control; settings: read-out: GI
MDA-MB-435 = assay: Growth inhibition of human MDA-MB-435 cells at 10 uM after 48 hrs by SRB assay relative to control; settings: MDA-MB-435, 48 h, read-out: GI
NCI-H226 = assay: Growth inhibition of human NCI-H226 cells at 10 uM after 48 hrs by SRB assay relative to control; settings: NCI-H226, 48 h, read-out: GI
[12] = Growth inhibition of human TK10 cells at 10 uM after 48 hrs by SRB assay relative to control; settings: TK-10, 48 h, read-out: GI
[13] = Growth inhibition of human OVCAR4 cells at 10 uM after 48 hrs by SRB assay relative to control; settings: OVCAR-4, 48 h, read-out: GI
[14] = Growth inhibition of human HL-60(TB) cells at 10 uM after 48 hrs by SRB assay relative to control; settings: HL-60, 48 h, read-out: GI
[15] = Growth inhibition of human HCT116 cells at 10 uM after 48 hrs by SRB assay relative to control; settings: HCT-116, 48 h, read-out: GI
SK-MEL-28 = assay: Growth inhibition of human SK-MEL-28 cells at 10 uM after 48 hrs by SRB assay relative to control; settings: SK-MEL-28, 48 h, read-out: GI
MDA-MB-468 = assay: Growth inhibition of human MDA-MB-468 cells at 10 uM after 48 hrs by SRB assay relative to control; settings: MDA-MB-468, 48 h, read-out: GI
NCI-H522 = assay: Growth inhibition of human NCI-H522 cells at 10 uM after 48 hrs by SRB assay relative to control; settings: NCI-H522, 48 h, read-out: GI
MCF7 = assay: Growth inhibition of human MCF7 cells at 10 uM after 48 hrs by SRB assay relative to control; settings: MCF7, 48 h, read-out: GI
NCI-H460 = assay: Growth inhibition of human NCI-H460 cells at 10 uM after 48 hrs by SRB assay relative to control; settings: NCI-H460, 48 h, read-out: GI
[16] = Growth inhibition of human HOP92 cells at 10 uM after 48 hrs by SRB assay relative to control; settings: HOP-92, 48 h, read-out: GI
[17] = Growth inhibition of human Caki1 cells at 10 uM after 48 hrs by SRB assay relative to control; settings: CAKI-1, 48 h, read-out: GI

Compound	inhibition of growth at 10 µM [1]	inhibition of growth at 10 µM (A498)	inhibition of growth at 10 µM [2]	inhibition of growth at 10 µM (HT-29)	inhibition of growth at 10 µM [3]	inhibition of growth at 10 µM (KM12)	inhibition of growth at 10 µM (NCI-H23)	inhibition of growth at 10 µM (CCRF-CEM)	inhibition of growth at 10 µM (K562)	inhibition of growth at 10 µM [4]	inhibition of growth at 10 µM [5]	inhibition of growth at 10 µM [6]	inhibition of growth at 10 µM (SR)	inhibition of growth at 10 µM (A549)	inhibition of growth at 10 µM [7]	inhibition of growth at 10 µM [8]	inhibition of growth at 10 µM (SK-MEL-5)	inhibition of growth at 10 µM [9]	inhibition of growth at 10 µM [10]	inhibition of growth at 10 µM (786-0)	further results
COc1ccc(C(=O)c2ccc3c(c2)Sc2ccccc2N3C)cc1F	21%	45%	27%	30%	58%	30%	13%	12%	61%	19%	12%	7%	32%	44%	8%	26%	13%	15%	36%	16%	inhibition of growth at 10 µM [11]: 34%; inhibition of growth at 10 µM (NCI-H322M): 5%; inhibition of growth at 10 µM (MDA-MB-435): 87%; inhibition of growth at 10 µM (NCI-H226): 15%; inhibition of growth at 10 µM [12]: 8%; inhibition of growth at 10 µM [13]: 10%; inhibition of growth at 10 µM [14]: 0%; inhibition of growth at 10 µM [15]: 17%; inhibition of growth at 10 µM (SK-MEL-28): 13%; inhibition of growth at 10 µM (MDA-MB-468): 55%; inhibition of growth at 10 µM (NCI-H522): 22%; inhibition of growth at 10 µM (MCF7): 37%; inhibition of growth at 10 µM (NCI-H460): 13%; inhibition of growth at 10 µM [16]: 17%; inhibition of growth at 10 µM [17]: 22%
O/N=C(/c1ccc2c(c1)Sc1ccccc1N2)c1c[nH]c2ccccc12	72%	53%	74%	84%	63%	76%	24%	76%	87%	29%	31%	44%	91%	48%	18%	54%	40%	40%	58%	38%	inhibition of growth at 10 µM [11]: 45%; inhibition of growth at 10 µM (NCI-H322M): 26%; inhibition of growth at 10 µM (MDA-MB-435): 100%; inhibition of growth at 10 µM (NCI-H226): 23%; inhibition of growth at 10 µM [12]: 21%; inhibition of growth at 10 µM [13]: 26%; inhibition of growth at 10 µM [14]: 87%; inhibition of growth at 10 µM [15]: 64%; inhibition of growth at 10 µM (SK-MEL-28): 31%; inhibition of growth at 10 µM (MDA-MB-468): 63%; inhibition of growth at 10 µM (NCI-H522): 100%; inhibition of growth at 10 µM (MCF7): 57%; inhibition of growth at 10 µM (NCI-H460): 82%; inhibition of growth at 10 µM [16]: 51%; inhibition of growth at 10 µM [17]: 53%
